Calls of active or inactive are those of the source. No cut-off for these calls is given here.
How the values were obtained:
GSC-18 [1] = assay: (§1) Cytotoxicity against human GSC18 cells assessed as reduction in cell viability after 72 hrs by MTS assay; assay type: functional, cell-based
GSC-3 [2] = assay: (§2) Cytotoxicity against human GSC3 cells assessed as reduction in cell viability after 72 hrs by MTS assay; assay type: functional, cell-based
GSC-18 [3] = assay: Inhibition of colony formation in human GSC-18 cells assessed as tumor spheres damage at 15 uM after 2 weeks by crystal violet staining based assay; assay type: functional, cell-based
GSC-3 [4] = assay: Inhibition of colony formation in human GSC-3 cells assessed as decrease in number of tumor spheres at 15 uM after 2 weeks by crystal violet staining based assay; assay type: functional, cell-based
GSC-18 [5] = assay: Inhibition of colony formation in human GSC-18 cells assessed as decrease in number of tumor spheres at 15 uM after 2 weeks by crystal violet staining based assay; assay type: functional, cell-based
GSC-3 [6] = assay: Inhibition of colony formation in human GSC-3 cells assessed as tumor spheres damage at 15 uM after 2 weeks by crystal violet staining based assay; assay type: functional, cell-based
[7] = as §1; assay type: functional, cell-based, GSC-18; conditions: GSC18, 72 h
HEK-293T [8] = assay: Cytotoxicity against human 293T cells assessed as reduction in cell viability after 72 hrs by MTS assay; assay type: cell-based; conditions: for IC50: Homo sapiens, HEK-293T
HUVEC [9] = assay: Cytotoxicity against HUVEC assessed as reduction in cell viability after 72 hrs by MTS assay; assay type: cell-based, Homo sapiens; conditions: for IC50: Homo sapiens, HUVEC
[10] = as §2; assay type: functional, cell-based; conditions: GSC-3, 72 h
T98G [11] = assay: Cytotoxicity against human T98G assessed as reduction in cell viability after 72 hrs by MTS assay; assay type: cell-based
U-87 MG [12] = assay: Cytotoxicity against human U-87 MG cells assessed as reduction in cell viability after 72 hrs by MTS assay; assay type: cell-based, U-87MG ATCC
GSC-3 [13] = assay: Cytotoxicity against human GSC3 cells assessed as inhibition of cell growth at 20 uM after 5 days; assay type: functional, cell-based; conditions: time 5.0 day
T98G [14] = assay: Cytotoxicity against human T98G cells assessed as inhibition of cell growth at 20 uM after 5 days; assay type: cell-based; conditions: 120 h, time 5 day
U-87 MG [15] = assay: Cytotoxicity against human U-87 MG cells assessed as inhibition of cell growth at 20 uM after 5 days; assay type: cell-based; conditions: u-87mg atcc, 120 h, time 5 day
HUVEC [16] = assay: Cytotoxicity against HUVEC assessed as inhibition of cell growth at 20 uM after 5 days; assay type: cell-based; conditions: human, 120 h, time 5 day
GSC-18 [17] = assay: Cytotoxicity against human GSC18 cells assessed as inhibition of cell growth at 20 uM after 5 days; assay type: functional, cell-based; conditions: time 5.0 day
HEK-293T [18] = assay: Cytotoxicity against human 293T cells assessed as inhibition of cell growth at 20 uM after 5 days; assay type: cell-based; conditions: 120 h, time 5 day

Structure (SMILES) | Activity (GSC-18 [1]) | Activity (GSC-3 [2]) | IC50 [7] [nM] | IC50 (HEK-293T [8]) [nM] | IC50 (HUVEC [9]) [nM] | IC50 [10] [nM] | further results
C[C@@H]1CC[C@@]2(OC1)O[C@H]1C[C@H]3[C@@H]4CC=C5C[C@@H](O[C@@H]6O[C@H](CO)[C@@H](O[C@@H]7O[C@@H](C)[C@H](O)[C@@H](O)[C@H]7O)[C@H](O)[C@H]6O[C@@H]6O[C@@H](C)[C@H](O)[C@@H](O)[C@H]6O)CC[C@]5(C)[C@H]4CC[C@]3(C)[C@H]1[C@@H]2C | Active | Active |  |  |  |  | 
Cn1nnc2c(C(N)=O)ncn2c1=O |  |  |  |  |  |  | Activity (GSC-18 [3]): Active; inhibition (GSC-3 [4]): Active; inhibition (GSC-18 [5]): Active; Activity (GSC-3 [6]): Active
C[C@H](CC[C@@]1(O)O[C@H]2C[C@H]3[C@@H]4CC=C5C[C@@H](O[C@@H]6O[C@H](CO)[C@@H](O[C@@H]7O[C@@H](C)[C@H](O)[C@@H](O)[C@H]7O)[C@H](O)[C@H]6O[C@@H]6O[C@@H](C)[C@H](O)[C@@H](O)[C@H]6O)CC[C@]5(C)[C@H]4CC[C@]3(C)[C@H]2[C@@H]1C)CO[C@@H]1O[C@H](CO)[C@@H](O)[C@H](O)[C@H]1O |  |  | 1090 | 3220 | 3220 | 1030 | 
C[C@@H]1CC[C@@]2(OC1)O[C@H]1C[C@H]3[C@@H]4CC=C5C[C@@H](O[C@@H]6O[C@H](CO)[C@@H](O[C@@H]7O[C@@H](C)[C@H](O[C@@H]8O[C@@H](C)[C@H](O)[C@@H](O)[C@H]8O)[C@@H](O)[C@H]7O)[C@H](O)[C@H]6O[C@@H]6O[C@@H](C)[C@H](O)[C@@H](O)[C@H]6O)CC[C@]5(C)[C@H]4CC[C@]3(C)[C@H]1[C@@H]2C [PENNOGENIN RAHAMNOSYL CHACOTRIOSIDE] | inactive | inactive |  | 1830 | 1830 |  | 
CO[C@]1(CC[C@@H](C)CO[C@@H]2O[C@H](CO)[C@@H](O)[C@H](O)[C@H]2O)O[C@H]2C[C@H]3[C@@H]4CC=C5C[C@@H](O[C@@H]6O[C@H](CO)[C@@H](O[C@@H]7O[C@@H](C)[C@H](O)[C@@H](O)[C@H]7O)[C@H](O)[C@H]6O[C@@H]6O[C@@H](C)[C@H](O)[C@@H](O)[C@H]6O)CC[C@]5(C)[C@H]4CC[C@]3(C)[C@H]2[C@@H]1C [METHYLPROTODIOSCIN] |  |  | 1820 |  |  | 1820 | 
C[C@@H]1O[C@@H](O[C@H]2[C@H](O[C@H]3CC[C@@]4(C)C(=CC[C@H]5[C@@H]6C[C@@H]7O[C@@]8(OC[C@H](CO)CC8O[C@H]8O[C@@H](CO)[C@H](O)[C@@H](O)[C@@H]8O)[C@@H](C)[C@@H]7[C@@]6(C)CC[C@@H]54)C3)O[C@H](CO)[C@@H](O[C@@H]3O[C@@H](C)[C@H](O)[C@@H](O)[C@H]3O)[C@@H]2O)[C@H](O)[C@H](O)[C@H]1O (stereo partly specified) | inactive | inactive |  |  |  |  | 
C[C@@H]1CC[C@@]2(OC1)O[C@H]1C[C@H]3[C@@H]4CC=C5C[C@@H](O[C@@H]6O[C@H](CO)[C@@H](O)[C@H](O)[C@H]6O[C@@H]6O[C@@H](C)[C@H](O)[C@@H](O)[C@H]6O)CC[C@]5(C)[C@H]4CC[C@]3(C)[C@H]1[C@@H]2C [OPHIOPOGONIN C] |  |  | 780 |  |  | 780 | Activity (T98G [11]; human, t98g, time 72 hrs): Non-Toxic; Activity (HEK-293T [8]; human, hek-293t, time 72 hrs): Non-Toxic; Activity (U-87 MG [12]; human, u-87mg atcc, time 72 hrs): Non-Toxic; Activity (HUVEC [9]; human, huvec, time 72 hrs): Non-Toxic
CC(=O)O[C@H]1C(=O)[C@@]2(C)[C@H]([C@H](OC(=O)c3ccccc3)[C@]3(O)C[C@H](OC(=O)[C@H](O)[C@@H](NC(=O)c4ccccc4)c4ccccc4)C(C)=C1C3(C)C)[C@]1(OC(C)=O)CO[C@@H]1C[C@@H]2O [PACLITAXEL] |  |  | 9600 | 10 | 5 | 11300 | IC50 (T98G [11]; Homo sapiens, T98G): 12 nM; Activity (GSC-3 [13]): Active; Activity (T98G [14]): Toxic; IC50 (U-87 MG [12]; Homo sapiens, U-87 MG): 8 nM; Activity (U-87 MG [15]): Toxic; Activity (HUVEC [16]): Toxic; Activity (GSC-18 [17]): Active; Activity (HEK-293T [18]): Toxic

Source: ChEMBL document CHEMBL4732125, “Structures/cytotoxicity/selectivity relationship of natural steroidal saponins against GSCs and primary mechanism of tribulosaponin A” (Eur J Med Chem, 2021)
